38 compounds from US20190389882A1, “INHIBITORS OF BETA SECRETASE” (Janssen Pharmaceutica NV, priority 2017, published 2019) can be followed below.

One experiment has as its target β-secretase I (BACE1) (Homo sapiens, UniProt P56817). In words: Automated (CyclOps) biochemical assay BACE1.
For the next experiment, the target named is T1, β-secretase II (BACE2) (Homo sapiens, UniProt Q9Y5Z0).
T1 sequence (Q9Y5Z0 63-518): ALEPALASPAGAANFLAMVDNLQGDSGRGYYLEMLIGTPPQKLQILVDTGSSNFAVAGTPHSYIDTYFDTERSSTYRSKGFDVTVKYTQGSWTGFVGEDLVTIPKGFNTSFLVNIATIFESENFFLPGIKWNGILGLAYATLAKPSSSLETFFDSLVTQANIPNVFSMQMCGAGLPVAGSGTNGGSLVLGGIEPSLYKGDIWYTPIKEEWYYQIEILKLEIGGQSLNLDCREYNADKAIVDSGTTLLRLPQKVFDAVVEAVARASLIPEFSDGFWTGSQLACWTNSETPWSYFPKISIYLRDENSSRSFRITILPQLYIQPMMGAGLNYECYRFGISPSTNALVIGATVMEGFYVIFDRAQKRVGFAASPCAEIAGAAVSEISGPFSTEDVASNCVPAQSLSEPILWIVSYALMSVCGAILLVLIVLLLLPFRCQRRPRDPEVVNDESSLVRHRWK
In words: Automated (CyclOps) biochemical assay BACE2.

Sequence of β-secretase I (BACE1) (P56817 46-501): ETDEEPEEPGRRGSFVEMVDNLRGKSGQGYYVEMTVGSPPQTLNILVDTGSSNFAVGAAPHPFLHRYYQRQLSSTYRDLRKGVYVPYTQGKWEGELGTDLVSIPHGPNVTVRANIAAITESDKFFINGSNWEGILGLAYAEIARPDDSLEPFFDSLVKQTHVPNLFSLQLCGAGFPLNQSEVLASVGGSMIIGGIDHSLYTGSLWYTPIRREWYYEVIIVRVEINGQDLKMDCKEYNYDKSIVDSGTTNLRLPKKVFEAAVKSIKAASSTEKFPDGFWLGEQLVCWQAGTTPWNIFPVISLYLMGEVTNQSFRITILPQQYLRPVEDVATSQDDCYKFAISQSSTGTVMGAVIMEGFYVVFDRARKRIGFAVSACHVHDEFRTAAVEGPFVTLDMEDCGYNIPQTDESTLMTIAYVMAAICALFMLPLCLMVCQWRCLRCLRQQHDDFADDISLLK

A word on the IC50: it is the concentration that gives 50% inhibition. On to `COc1cccc(C2CCN(C(=O)c3cnc(OC)c4c3C[C@H]3CSC(N)=N[C@@]3(c3ccc(F)cc3F)C4)C2)c1` (single isomer, unassigned) [Compound 25], for which the IC50 was 0.0148 µM at β-secretase I (BACE1) and 0.0881 µM at β-secretase II (BACE2).
For `COc1ncc(C(=O)N2CCN(c3cccnc3)CC2)c2c1C[C@]1(c3ccc(F)cc3F)N=C(N)SC[C@@H]1C2` [Compound 5], the IC50 on β-secretase I (BACE1) is 0.145 µM; against β-secretase II (BACE2), 0.324 µM.
`COc1ncc(C(=O)N2CCC(C#N)C2)c2c1C[C@]1(c3ccc(F)cc3F)N=C(N)SC[C@@H]1C2` (stereo partly shown) [Compound 6]: the results for the concentration for half-maximal inhibition (IC50) against β-secretase I (BACE1) and against β-secretase II (BACE2) were 0.0562 µM and 0.282 µM, respectively.
The corresponding values for `COc1ncc(C(=O)N2CCN(c3nccs3)CC2)c2c1C[C@]1(c3ccc(F)cc3F)N=C(N)SC[C@@H]1C2` [Compound 7] are 0.324 µM and 0.871 µM.
As for `COc1ncc(C(=O)N2Cc3cccnc3C2)c2c1C[C@]1(c3ccc(F)cc3F)N=C(N)SC[C@@H]1C2` [Compound 8], the results for the half-inhibitory concentration (IC50) on β-secretase I (BACE1) and against β-secretase II (BACE2) were 1 µM and 3.55 µM, respectively.
Take `COc1ncc(C(=O)N2CC(C)OC(C)C2)c2c1C[C@]1(c3ccc(F)cc3F)N=C(N)SC[C@@H]1C2` (stereo partly shown) [Compound 9]: the results for the IC50 at β-secretase I (BACE1) and against β-secretase II (BACE2) were 0.363 µM and 2.14 µM, respectively.
As for `COc1ncc(C(=O)N2CCN(C(=O)C3CC3)CC2)c2c1C[C@]1(c3ccc(F)cc3F)N=C(N)SC[C@@H]1C2` [Compound 10], the results for the IC50 at β-secretase I (BACE1) and on β-secretase II (BACE2) were 0.49 µM and 1.45 µM, respectively.
Take `COCC1CCN(C(=O)c2cnc(OC)c3c2C[C@H]2CSC(N)=N[C@@]2(c2ccc(F)cc2F)C3)CC1` [Compound 11]: the IC50 against β-secretase I (BACE1) is 0.155 µM; against β-secretase II (BACE2) it was 0.776 µM.
The corresponding values for `COc1ncc(C(=O)N2CCS(=O)(=O)CC2)c2c1C[C@]1(c3ccc(F)cc3F)N=C(N)SC[C@@H]1C2` [Compound 12] are 0.501 µM and 0.832 µM.
The corresponding values for `COc1ncc(C(=O)N2CCOC(c3cccc(C)c3)C2)c2c1C[C@]1(c3ccc(F)cc3F)N=C(N)SC[C@@H]1C2` (stereo partly shown) [Compound 13] are 0.0692 µM and 0.309 µM.
On to `COc1ncc(C(=O)N2CCC(Oc3ccc(F)cc3)CC2)c2c1C[C@]1(c3ccc(F)cc3F)N=C(N)SC[C@@H]1C2` [Compound 14], for which the figures for the IC50 against β-secretase I (BACE1) and on β-secretase II (BACE2) were 0.011 µM and 0.0389 µM, respectively.
With `COc1ncc(C(=O)Nc2ccncc2)c2c1C[C@]1(c3ccc(F)cc3F)N=C(N)SC[C@@H]1C2` [Compound 16], the results for the IC50 at β-secretase I (BACE1) and on β-secretase II (BACE2) were 0.0537 µM and 0.138 µM, respectively.
The corresponding values for `COc1ncc(C(=O)N2CCN(c3ccncc3)CC2)c2c1C[C@]1(c3ccc(F)cc3F)N=C(N)SC[C@@H]1C2` [Compound 17] are 0.158 µM and 2.37 µM.
In the case of `COc1ncc(C(=O)N(C)Cc2ccncc2)c2c1C[C@]1(c3ccc(F)cc3F)N=C(N)SC[C@@H]1C2` [Compound 18], the IC50 is 0.00851 µM against β-secretase I (BACE1) and 0.0302 µM at β-secretase II (BACE2).
The corresponding values for `COc1ncc(C(=O)N2C[C@H]3CC[C@@H](C2)O3)c2c1C[C@]1(c3ccc(F)cc3F)N=C(N)SC[C@@H]1C2` [Compound 19] are 0.0186 µM and 0.117 µM.
Take `COc1ncc(C(=O)N2CCCCC2)c2c1C[C@]1(c3ccc(F)cc3F)N=C(N)SC[C@@H]1C2` [Compound 20]: the figures for the IC50 against β-secretase I (BACE1) and against β-secretase II (BACE2) were 0.0501 µM and 0.195 µM, respectively.
`COc1ncc(C(=O)N(C)c2ccncc2)c2c1C[C@]1(c3ccc(F)cc3F)N=C(N)SC[C@@H]1C2` [Compound 21]: the IC50 was 0.112 µM on β-secretase I (BACE1) and 0.324 µM against β-secretase II (BACE2).
As to `COc1ncc(C(=O)N2CCCC(OC)C2)c2c1C[C@]1(c3ccc(F)cc3F)N=C(N)SC[C@@H]1C2` (stereo partly shown) [Compound 23], the IC50 against β-secretase I (BACE1) was 0.0617 µM; on β-secretase II (BACE2) it was 0.324 µM.
The corresponding values for `COc1cccc(N2CCN(C(=O)c3cnc(OC)c4c3C[C@H]3CSC(N)=N[C@@]3(c3ccc(F)cc3F)C4)CC2)c1` [Compound 24] are 0.0617 µM and 0.0631 µM.
For the compound `COc1ncc(C(=O)N2CCC(c3ccncc3)C2)c2c1C[C@]1(c3ccc(F)cc3F)N=C(N)SC[C@@H]1C2` (stereo partly shown) [Compound 26], the IC50 on β-secretase I (BACE1) is 0.0157 µM; on β-secretase II (BACE2), 0.507 µM.
The corresponding values for `COc1ncc(C(=O)N2CCN(C(C)=O)CC2)c2c1C[C@]1(c3ccc(F)cc3F)N=C(N)SC[C@@H]1C2` [Compound 27] are 0.955 µM and 4.17 µM.
The corresponding values for `COc1ncc(CNC(=O)c2ccc(C#N)cc2)c2c1C[C@]1(c3ccc(F)cc3F)N=C(N)SC[C@@H]1C2` [Compound 33] are 0.0575 µM and 0.178 µM.
`COc1ccccc1C(=O)NCc1cnc(OC)c2c1C[C@H]1CSC(N)=N[C@@]1(c1ccc(F)cc1F)C2` [Compound 34]: the IC50 on β-secretase I (BACE1) is 0.219 µM; against β-secretase II (BACE2) it was 0.537 µM.
The corresponding values for `COc1ncc(CNC(=O)c2ccncc2C(F)(F)F)c2c1C[C@]1(c3ccc(F)cc3F)N=C(N)SC[C@@H]1C2` [Compound 35] are 0.138 µM and 0.724 µM.
The corresponding values for `COc1ncc(CNC(=O)c2cnc(C(F)(F)F)nc2)c2c1C[C@]1(c3ccc(F)cc3F)N=C(N)SC[C@@H]1C2` [Compound 36] are 0.0219 µM and 0.0363 µM.
The corresponding values for `COc1ncc(CNC(=O)c2ncc(F)cc2F)c2c1C[C@]1(c3ccc(F)cc3F)N=C(N)SC[C@@H]1C2` [Compound 37] are 0.0251 µM and 0.0708 µM.
With `COc1ncc(CNC(=O)c2ccncc2F)c2c1C[C@]1(c3ccc(F)cc3F)N=C(N)SC[C@@H]1C2` [Compound 38], the IC50 at β-secretase I (BACE1) is 0.0191 µM; on β-secretase II (BACE2) it was 0.115 µM.
The corresponding values for `COc1cccc(C(=O)NCc2cnc(OC)c3c2C[C@H]2CSC(N)=N[C@@]2(c2ccc(F)cc2F)C3)n1` [Compound 39] are 0.182 µM and 0.389 µM.
Consider `COc1ncc(CNC(=O)c2cccnc2C)c2c1C[C@]1(c3ccc(F)cc3F)N=C(N)SC[C@@H]1C2` [Compound 40], for which the IC50 against β-secretase I (BACE1) was 0.112 µM; against β-secretase II (BACE2) it was 0.186 µM.
The corresponding values for `COc1cc(C(=O)NCc2cnc(OC)c3c2C[C@H]2CSC(N)=N[C@@]2(c2ccc(F)cc2F)C3)c(OC)nn1` [Compound 41] are 0.0794 µM and 0.513 µM.
The corresponding values for `COc1ncc(CNC(=O)c2cnoc2C(C)C)c2c1C[C@]1(c3ccc(F)cc3F)N=C(N)SC[C@@H]1C2` [Compound 42] are 0.0741 µM and 0.138 µM.
Consider `COc1ncc(CNC(=O)c2cccnc2F)c2c1C[C@]1(c3ccc(F)cc3F)N=C(N)SC[C@@H]1C2` [Compound 43], for which the IC50 on β-secretase I (BACE1) is 0.0209 µM; against β-secretase II (BACE2), 0.0977 µM.
Regarding `COc1ncc(CNC(=O)CN2CCOCC2)c2c1C[C@]1(c3ccc(F)cc3F)N=C(N)SC[C@@H]1C2` [Compound 44], the concentration for half-maximal inhibition (IC50) is 0.0417 µM at β-secretase I (BACE1) and 0.0794 µM against β-secretase II (BACE2).
The corresponding values for `COc1ncc(CNC(=O)c2cccnc2)c2c1C[C@]1(c3ccc(F)cc3F)N=C(N)SC[C@@H]1C2` [Compound 45] are 0.00851 µM and 0.0295 µM.
`CCOc1ncccc1C(=O)NCc1cnc(OC)c2c1C[C@H]1CSC(N)=N[C@@]1(c1ccc(F)cc1F)C2` [Compound 46]: the figures for the IC50 on β-secretase I (BACE1) and at β-secretase II (BACE2) were 0.0363 µM and 0.407 µM, respectively.
The corresponding values for `COc1ncccc1C(=O)NCc1cnc(OC)c2c1C[C@H]1CSC(N)=N[C@@]1(c1ccc(F)cc1F)C2` [Compound 47] are 0.0257 µM and 0.209 µM.
The corresponding values for `COc1cc(OC)nc(C(=O)NCc2cnc(OC)c3c2C[C@H]2CSC(N)=N[C@@]2(c2ccc(F)cc2F)C3)n1` [Compound 49] are 0.0347 µM and 0.178 µM.
For `COc1ncc(CNC(=O)c2ccncn2)c2c1C[C@]1(c3ccc(F)cc3F)N=C(N)SC[C@@H]1C2` [Compound 50], the values for the IC50 against β-secretase I (BACE1) and on β-secretase II (BACE2) were 0.115 µM and 0.309 µM, respectively.
